Results as given in paper PMC8778187, “A New Oxygen Containing Pyclen-Type Ligand as a Manganese(II) Binder for MRI and ^52Mn PET Applications: Equilibrium, Kinetic, Relaxometric, Structural and Radiochemical Studies” (Molecules, 2022).
Values joined by “and” are separate entries in the source; they are usually repeats but may differ in a detail not shown here. Equal entries are not always repeated.

Columns and labels:
[1] = Stability and protonation constants of Cu(II) complexes by pH-potentiometry and UV-Vis spectrophotometry; assay type: physicochemical; conditions: Cu^2+ complex, T = 25 °C, I = 0.15 M NaCl
Experimental: The stability and protonation constants of the metal complexes formed with H2OPC2A were determined by pH-potentiometric titrations, but, for the Cu(II) complex, UV-Vis spectrophotometric measurements were also carried out to supplement the pH-potentiometric titration data (Figures S21 and S22, Supporting Information).
Metal stock solutions were prepared from the highest analytical grade chemicals, and their concentrations were determined by complexometric titration with standardized Na2H2EDTA and eriochrome black T indicator in the presence of ascorbic acid, and potassium hydrogen tartrate for MnCl2, murexide indicator for CaCl2 and CuCl2, eriochrome black T for MgCl2 and xylenol orange in the presence of hexamethylenetetramine for the solution of ZnCl2. The concentration of the ligand stock solution was determined by pH-potentiometric titrations. The protonation constants of the ligand were determined by the pH potentiometric titrations with 0.15 M NaOH, using 0.0025 M ligand solutions. The ionic strength was set to 0.15 M by using NaCl. The titrated samples (starting volume of 6 mL) were stirred mechanically, and thermostated at 25 °C by a circulating water bath (±0.1 °C). […]
To avoid the effect of CO2, N2 gas was bubbled through the solutions during the titrations process. […] For the calibration of the pH meter, KH-phtalate (pH = 4.005) and borax (pH = 9.177) buffers were used, and the H^+ ion concentrations were calculated from the measured pH values by applying the method proposed by Irving et al.. A solution of approximately 0.01 M HCl was titrated with a 0.15 M NaOH solution (0.15 or 1.00 M NaCl), and the differences between the measured and calculated pH values (for the points with pH < 2.4) were used to calculate the (H^+) from the pH values measured in the titration experiments. […] The stability constants of the metal complexes (except for Cu(II)) were determined using the direct pH-potentiometric method, by titrating samples with 1:1 metal-to-ligand ratios (the number of fitted data pairs were between 127–212), allowing 1 min for the sample equilibration to occur. […]

[2] = Metal exchange reactions with Cu(II) followed by UV-Vis as a function of pH; assay type: physicochemical
Experimental: Metal exchange reactions occurring with Cu(II) studied as a function of pH: a more detailed dissociation kinetic study was performed by using the Cu(II) ion. Metal exchange reactions occurring with Cu(II) were followed by UV-Vis as a function of the pH (in the pH range of 3.44–4.97) and metal ion concentration (20- and 40-fold excess of Cu(II) was applied), in order to evaluate the rates of spontaneous (k0 rate constant) and/or proton assisted (k1 rate constant) and/or metal ion provoked dissociation (kM).
As it can be seen in Figure 4, the rate constants (kobs) are proportional to the H^+ ion concentration, while they slightly decrease with the increasing Cu(II) concentration. Therefore, one can assume that [Mn(3,9-OPC2A)] dissociates by following spontaneous (the positive value of the intercept with the y axis) and proton assisted pathways, while Cu(II) is involved in the formation of a dinuclear intermediate with a relatively low stability [Mn(3,9-OPC2A)Cu]^2+, which is a “dead-end” complex (i.e., its formation reduces the concentration of the reactive protonated species, thereby slowing down the reaction). The dissociation pathways followed by [Mn(3,9-OPC2A)] can be accounted for by Equation (1), where [Mn(L)]t is the total concentration of the Mn(II) complex, and the k0, kH, and kM are the rate constants characterizing the spontaneous, the proton and metal ion assisted pathways, respectively. (1) −d[Mn(L)]/dt=kobs[Mn(L)]t=k0[Mn(L)]+kH[Mn(HL)]+kHHMnH2L+kM[Mn(L)Cu]
Using the expressions for the stability and protonation constants of the complexes, and that of the dinuclear intermediate [Mn(L)Cu], one can derive Equation (1) (in this expression k1 = kH × KMnL×H; k2 = kH^H × KMnL×H; × KMnLH×H; k3 = kM × KMnL×Cu; where KMnL×H; and KMnLH×H are the protonation constants of [Mn(3,9-OPC2A)] and KMnL×Cu is the stability constant of the dinuclear [Mn(3,9-OPC2A)Cu]^2+ intermediate, which is used for the fitting of the kobs rate data—the proton assisted dissociation pathways involving a diprotonated intermediate, characterized k2, play a negligible role in the dissociation of the [Mn(3,9-OPC2A)] complex under the experimental conditions used for kinetic studies. (2) kobs=k0+k1H^+/1+KHH^++KMCu^2+
Metal exchange reactions occurring between the complex and Cu(II) (in the presence of a 20- and 40-fold excess, to ensure pseudo-first-order conditions) was investigated at 25 °C and 0.15 M NaCl ionic strength, by using a JASCO V-760 UV-VIS spectrophotometer at 290 nm. […] The values of the pseudo-first-order rate constants (kobs) were determined using the following equation: At = Av + (A0 − Av)e^kobs×t, where At is the absorbance at time t, A0 is the absorbance of the reactants, and Av is the absorbance of the products.

Row | log KMnLOH [1] | log KMnHL ([1]; footnote g) | log KMnL ([1]; footnote g) | t1/2 (h) at pH = 7.4 ([2]; extrapolated to pH = 7.4 from Cu(II) exchange rate constants, calculated with the use of k0 value, cZn(II) = 1 × 10^−5 M) [h] | KML x Cu ([2]; stability constant of dinuclear intermediate, T = 25 °C, I = 0.15 M NaCl) | Structure (SMILES) | k1 ([2]; proton assisted dissociation, T = 25 °C, I = 0.15 M NaCl) | k0 ([2]; spontaneous dissociation, T = 25 °C, I = 0.15 M NaCl, to be treated as higher limit)
1 | 10.50(5) | 1.92(4) ^g | 18.41(4) ^g | – | – | O=C(O)CN1CCOCCN(CC(=O)O)Cc2cccc(n2)C1 [H23,9-OPC2A, 6-Oxa-3,9,15-triazabicyclo(9.3.1)pentadeca-1(15),11,13-triene-3,9-diacetic acid] | – | –
2 | – | – | – | 21.9 | 7 ± 4 | O=C([O-])CN1CCOCCN(CC(=O)[O-])Cc2cccc(n2)C1.[Mn+2] [[Mn(3,9-OPC2A)]] | 2.81 ± 0.07 M⁻¹ s⁻¹ and 2.81 M⁻¹ s⁻¹ | (8.6 ± 1.1) × 10^−6 s^−1
